Reference: patent US10760052B2, “Method of inhibiting tau phosphorylation” (priority 2012, dated 2020)

Tests used:
[1] = system: FLNA-TLR4 association; test: FLNA association with TLR4 in organotypic frontocortical slice cultures; assay type: cell-based, rat; conditions: 100 nM Aβ42, 16 hours, compound added simultaneously
Description: (§1) Tissue was harvested and solubilized, and a specific antibody against FLNA was used to immunoprecipitate FLNA and associated proteins. The FLNA immunoprecipitate was size-fractionated using SDS-PAGE, transferred and probed with specific antibodies directed against each of the following receptors: α7nAChR, TLR4, IR and MOR.
(§2) Rat brain slice organotypic culture methods were modified from those published previously. [Adamchik et al., Brain Res Brain Res Protoc 5:153-158 (2000).] FCX slices ([…]) were transferred to sterile, porous Millicell-CM inserts (0.4 μm). Each culture insert unit contained two brain slices and was placed into individual wells of a 12-well culture tray in 2 ml medium: 50% MEM with Earl's salts, 2 mM L-glutamine, 25% Earl's balanced salt solution, 6.5 g/l D-glucose, 20% fetal bovine serum (FBS), 5% horse serum, 25 mM HEPES buffer, pH 7.2, and […]. […]
(§3) The level of FLNA-associated α7nAChRs was determined using a co-immunoprecipitation/Western blotting method as described previously. […] The levels of FLNA-associated α7nAChR, TLR4, IR and MOR were assessed by Western blotting using specific antibodies directed against the respective proteins and the blot stripped and re-probed for FLNA for immunoprecipitation/loading control.

[2] = system: NMDAR; assay type: cell-based, rat; conditions: slice cultures, 0.1 μM Aβ42
[3] = system: voltage-gated Ca2+ channel mediated Ca2+ influx; assay type: cell-based, rat; conditions: slice cultures
[4] = system: tau (pSer202, pThr231, pThr181); test: Tau phosphorylation in organotypic frontocortical slice cultures; assay type: cell-based, rat; conditions: C0105 0.1, 1, 10 nM; C0114 1, 10 nM; simultaneous with Aβ42
Description: On the day of study, medium was removed, the brain slices rinsed and incubated in 0.1% FBS-containing medium for 4 hours at 36° C. in 5% CO2.
The levels of phosphorylated tau (pSer202tau, pThr231tau and pThr181tau) as well as total tau precipitated (loading controls) are assessed by Western blotting using specific antibodies directed against each of the phosphoepitopes and the anti-tau, respectively.

[5] = system: insulin receptor (IR); test: IR activation and signaling (pY1150/1151 IRβ, IRS-1) in slice cultures; assay type: cell-based, rat; conditions: insulin stimulation
Description: IR activation and signaling was initiated by incubation of 6 slices that were further chopped horizontally into 100 μm (100 μm×200 μm×3 mm) with either KR (basal) or KR containing 1 nM insulin at 37° C. for 30 minutes. […] Ligand stimulation was terminated by the addition of 1 ml of ice-cold Ca^2+-free K-R containing mixture of protein phosphatase inhibitors, 0.5 mM EGTA and 0.1 mM EDTA. Brain slices were harvested by a brief centrifugation and were homogenized in 0.25 ml of ice-cold immunoprecipitation buffer. The homogenates were centrifuged at 1000×g for 5 minutes (4° C.) and the supernatant (post-mitochondrial fraction) was sonicated for 10 seconds on ice. […] The resultant lysates were then cleared by centrifugation at 50,000×g for 5 minutes and diluted with 0.75 ml of immunoprecipitation buffer. Protein concentrations were measured by Bradford method (Bio-Rad).
In these experiments, brain slice lysates (100 μg) were immunoprecipitated overnight (about 18 hours) at 4° C. with 2 μg of immobilized anti-IRβ onto covalently conjugated protein A-agarose beads (Pierce-ENDOGEN). […]

[6] = system: α7nAChR (Aβ42 binding); test: FITC-Aβ42 binding to biotinylated α7nAChR-containing SK-N-MC cell fragments; set-up: species or system human; conditions: added simultaneously, 30° C., 30 minutes
[7] = system: α7nAChR; assay type: cell-based, rat
[8] = system: FLNA-α7nAChR association; test: FLNA association with α7nAChR in organotypic frontocortical slice cultures; assay type: cell-based, rat; conditions: 100 nM Aβ42, 16 hours, compound added simultaneously
Description: as §1, §2, §3

[9] = system: NMDAR; test: Levels of signaling molecules associated with NMDAR (NR1) in slice cultures; assay type: cell-based, rat; conditions: 0.1 μM Aβ42
Description: NMDAR activation and signaling was initiated by incubation of 6 slices with either 0.3 mM Mg^2+ containing KR (LMKR; basal) or LMKR containing 10 μM NMDA and 1 μM glycine at 37° C. for 30 minutes.
Ligand stimulation was terminated by the addition of 1 ml of ice-cold Ca^2+-free K-R containing mixture of protein phosphatase inhibitors, 0.5 mM EGTA and 0.1 mM EDTA. Brain slices were harvested by a brief centrifugation and were homogenized in 0.25 ml of ice-cold immunoprecipitation buffer. The homogenates were centrifuged at 1000×g for 5 minutes (4° C.) and the supernatant (post-mitochondrial fraction) was sonicated for 10 seconds on ice.
The resultant lysates were cleared by centrifugation at 50,000×g for 5 minutes and diluted with 0.75 ml of immunoprecipitation buffer. Protein concentrations were measured by Bradford method (Bio-Rad).
To determine the association of NMDARs with PSD-95, as well as NMDAR signaling, the levels of NMDAR subunits, PSD-95 and NMDAR-associated signaling molecules were measured in anti-NR1 immunoprecipitates. In these studies, brain slice lysates (100 μg) were immunoprecipitated overnight at 4° C. with 2 μg of immobilized anti-NR1 onto covalently conjugated protein A-agarose beads (Pierce-ENDOGEN). […]

SMILES: O=C1CNC2(CCNCC2)N1Cc1ccccc1 [Compound C0114]
- Aβ42-induced increase in FLNA-TLR4 association [1]: reduced the FLNA-α7AchR association at both concentrations and the FLNA-TLR4 association at 10 nM
- Aβ42-induced impairment in NMDAR function (calcium influx after NMDA and glycine) [2]: significantly restoring NMDAR function
- Aβ42-induced reduction of K+-evoked calcium influx [3]: completely reversed
- Aβ42-induced tau phosphorylation [4]: reduced tau phosphorylation at all three phosphorylation sites
- Aβ42-induced IR signaling impairments (IRS-1 association, pY1150/1151 IRβ) [5]: normalized the signaling impairments
- Inhibition of FITC-Aβ42 binding ([6]; 0.1 nM compound): 27.8±3.3%
- Inhibition of FITC-Aβ42 binding ([6]; 1 nM compound): 40.0±2.1%
- Inhibition of FITC-Aβ42 binding ([6]; 10 nM compound): 53.4±3.6%
- Aβ42-induced impairment in α7nAChR function (calcium influx after PNU282987) [7]: restored functioning of this receptor
- Aβ42-induced increase in FLNA-α7nAChR association [8]: reduced the FLNA-α7AchR association at both concentrations
- Levels of six signaling molecules associated with NR1 after NMDA and glycine [9]: fully restored function
